Tests used:
[1] = tested on: T98G cells; assay: Clonogenic survival, POH pretreatment then doxorubicin, T98G; format: cell-based, human; conditions: T98G
Procedure: Referring to FIG. 29, subconfluent cells of T98G cells were treated with varying concentrations of perillyl alcohol (0.1 mM–0.5 mM) for 48 hours and subsequently treated with the indicated dose of doxorubicin (0.01 uM–0.1 uM) for 48 hours. At the end of the treatment, POH-pretreated and untreated cells in the presence and absence of doxorubicin, were harvested, washed with PBS, plated at the desired cell number and incubated for two weeks. The colonies were stained with crystal violet and quantitated. Survival was determined as the ratio of plating efficiencies for each irradiated group to that of the untreated control. […] Doxorubicin at concentrations over 0.1 uM appeared to be toxic to the cells.

[2] = tested on: rat mammary carcinoma; conditions: limonene, Haag et al.; cited from earlier work
[3] = rats, 10% limonene diet for 10 weeks; cited from earlier work
[4] = tested on: 21–26 kD proteins, including small GTP-binding proteins; conditions: dose dependent, distal to HMG-CoA reductase; cited from earlier work

Row | SMILES | concentrations toxic to the cells [1] | effect on advanced rat mammary carcinomas [2] | plasma levels of terpene metabolites [3] | isoprenylation of 21–26 kD proteins [4]
1 | COc1cccc2c1C(=O)c1c(O)c3c(c(O)c1C2=O)C[C@@](O)(C(=O)CO)C[C@@H]3O[C@H]1C[C@H](N)[C@H](O)[C@H](C)O1 [Doxorubicin, reference compound] | over 0.1 uM |  |  | 
2 | C=C(C)[C@H]1CC=C(C)CC1 [limonene] |  | regression of advanced rat mammary carcinomas | 270 µM | inhibit isoprenylation

— patent US7056491B2, “Monoterpenes and sesquiterpenes as chemotherapeutic and radiation sensitizers and immunomodulators” (Wisconsin Alumni Research Foundation, priority 2000, dated 2006)
